Data published in patent US8048986B2, “Reversed mammalian protein-protein interaction trap” (Vlaams Interuniversitair Instituut Voor Biotechnologie VZW, priority 2001, dated 2011).
“Also recorded” adds a separate entry of the source.

Target: ALK4-FKBP12 interaction (Homo sapiens, UniProt P62942)
Assay: reversed interaction trap: pSELFFY-ALK4 bait with inhibitory prey pMET7-fPPD1-FKBP12, rPAP1-luciferase reporter in HEK293T cells
Format: cell-based
Settings: pSELFFY-ALK4 + pMET7-fPPD1-FKBP12 (1000, 500, 250 ng), FK506 pretreatment, Epo 5 ng/ml after four hours, normalized with irrelevant bait pSELFFY-EpoR, FIG. 6
Procedure: HEK293T cells (six-well plate) were transfected with a combination of the following plasmids:
A representative experiment of triplicate luciferase measurements is shown. The values have been normalized using background luciferase activities (fold induction) and by using an irrelevant bait construct (pSELFFY-EpoR, exp. 4-6) to correct for toxicity of FK506 on the cells.
Two days after transfection, cells were seeded in black well plates (approximately 10,000 cells/well) and pretreated with various concentrations of FK506 as indicated. Epo was added after four hours to the treated cells (5 ng/ml). Twenty-four hours after stimulation, luciferase and beta-galactosidase activities were measured.
The values have been normalized using background luciferase activities (fold induction) and by using an irrelevant bait construct (pSELFFY-EpoR, exp. 4-6) to correct for toxicity of FK506 on the cells.

Chain of ALK4-FKBP12 interaction (P62942 2-107): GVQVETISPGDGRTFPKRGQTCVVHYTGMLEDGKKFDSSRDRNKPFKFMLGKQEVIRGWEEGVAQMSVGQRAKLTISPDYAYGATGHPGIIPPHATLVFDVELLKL
Chain of ALK4-FKBP12 interaction (P18031 1-276 partner limits assumed): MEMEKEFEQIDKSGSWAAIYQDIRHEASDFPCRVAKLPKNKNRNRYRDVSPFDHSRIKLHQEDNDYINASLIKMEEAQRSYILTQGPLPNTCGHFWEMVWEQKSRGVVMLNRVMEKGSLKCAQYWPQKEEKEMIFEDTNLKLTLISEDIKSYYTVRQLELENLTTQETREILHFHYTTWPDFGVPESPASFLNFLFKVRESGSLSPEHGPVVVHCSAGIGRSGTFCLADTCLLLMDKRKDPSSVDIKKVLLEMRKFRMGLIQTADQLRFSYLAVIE

**Q.** C=CC[C@@H]1/C=C(\C)C[C@H](C)C[C@H](OC)[C@H]2O[C@@](O)(C(=O)C(=O)N3CCCC[C@H]3C(=O)O[C@H](/C(C)=C/[C@@H]3CC[C@@H](O)[C@H](OC)C3)[C@H](C)[C@@H](O)CC1=O)[C@H](C)C[C@@H]2OC [FK506] was tested. Which “restoration of signaling via the pSELFFY-ALK4 bait / block of inhibition by the bait-prey interaction (luciferase activity, fold induction)” value did it give?
**A.** blocked, in a dose dependent manner; also recorded: partially restores signaling
